{"source": "patent US6613899B1", "about": "“Method for preventing deposits in oil extraction” (Cooperatie Cosun U.A., priority 1998, dated 2003)", "key": {"[1]": {"assay": "Barium sulphate scale inhibition", "details": "pH 5.5, 80° C., 10 hours", "description": "(§1) The scale-inhibiting action of CMI (DP≈10) was determined for barium sulphate. A saturated barium sulphate solution was prepared by mixing a barium chloride solution (380 mg/l) with a sodium sulphate solution (3350 mg/l) in a 1:1 ratio, with a maximum amount of barium sulphate to be formed of 210 mg/l. 5 mg/l, 10 mg/l or 15 mg/l of inhibitor was added to the solution. The pH of the solution was adjusted to 5.5 by addition of 1 ml acetate buffer (3.6 g sodium acetate trihydrate and 0.5 g acetic acid per 100 ml) per 100 ml. The solution was then left to stand at 80° C. After 10 hours the solution was filtered by suction through a 0.45 μm Millipore filter and the barium content of the filtrate was determined. The action of the inhibitor was calculated on the basis of the barium value for the experiment without inhibitor (0 per cent inhibition) and the barium value at which no precipitate was formed (100 per cent inhibition)."}, "[2]": {"assay": "Barium sulphate scale inhibition in presence of Fe2+ ions", "details": "38 mg/l Fe2+ ions, pH 5.5, 80° C., 10 hours", "description": "as §1\nExample 4 was repeated, with the exception that the barium sulphate solution contained 38 mg/l of Fe^2+ ions."}}, "data": [{"compound": "O=P(O)(O)CN(CCN(CP(=O)(O)O)CP(=O)(O)O)CCN(CP(=O)(O)O)CP(=O)(O)O", "note": "[Pentaphosphonate (DETPMP)]", "values": [{"measurement": "Inhibition (%) with 5 mg/l", "setting": "[1]; 5 mg/l inhibitor", "value": 18.0, "unit": "%"}, {"measurement": "Inhibition (%) with 10 mg/l", "setting": "[1]; 10 mg/l inhibitor", "value": 38.5, "unit": "%"}, {"measurement": "Inhibition (%) with 15 mg/l", "setting": "[1]; 15 mg/l inhibitor", "value": 55.5, "unit": "%"}, {"measurement": "Inhibition (%) with 5 mg/l", "setting": "[2]; 5 mg/l inhibitor", "value": 12.0, "unit": "%"}, {"measurement": "Inhibition (%) with 10 mg/l", "setting": "[2]; 10 mg/l inhibitor", "value": 21.5, "unit": "%"}, {"measurement": "Inhibition (%) with 15 mg/l", "setting": "[2]; 15 mg/l inhibitor", "value": 34.5, "unit": "%"}]}]}
